Reference: the NIST ThermoML archive (doi:10.1016/j.jct.2018.12.031)
± gives the expanded uncertainty stated by the source.

Assay: xn = mol fraction of the nth substance listed
Settings: 100 kPa, Liquid; for speed of sound: Frequency=3 MHz, Linear variable-path acoustic interferometer; for mass density: Pycnometric method

C=C(C)C(=O)OCC [ethyl 2-methylpropenoate] + N#Cc1ccccc1
Settings	mass density [kg/m3]	speed of sound [m/s]
293.15 K, x2 = 0	912.3 ± 1	1196.8 ± 1.6
293.15 K, x2 = 0.0711	918.32 ± 1	1212.4 ± 1.6
293.15 K, x2 = 0.1419	924.37 ± 1	1228 ± 1.7
293.15 K, x2 = 0.2152	930.7 ± 1	1244.1 ± 1.7
293.15 K, x2 = 0.2872	936.99 ± 1	1259.8 ± 1.7
293.15 K, x2 = 0.3568	943.14 ± 1	1274.9 ± 1.7
293.15 K, x2 = 0.4307	949.76 ± 1	1290.9 ± 1.7
293.15 K, x2 = 0.4991	955.96 ± 1	1306 ± 1.7
293.15 K, x2 = 0.5752	962.96 ± 1	1323.3 ± 1.7
293.15 K, x2 = 0.6431	969.29 ± 1	1339.2 ± 1.7
293.15 K, x2 = 0.7177	976.35 ± 1	1357.7 ± 1.7
293.15 K, x2 = 0.7773	982.06 ± 1	1373 ± 1.7
293.15 K, x2 = 0.8576	989.86 ± 1	1394.7 ± 1.7
293.15 K, x2 = 0.9289	996.89 ± 1	1414.8 ± 1.7
298.15 K, x2 = 0	907.18 ± 1	1176.9 ± 1.6
298.15 K, x2 = 0.0711	913.3 ± 1	1193 ± 1.6
298.15 K, x2 = 0.1419	919.45 ± 1	1208.9 ± 1.6
298.15 K, x2 = 0.2152	925.88 ± 1	1225 ± 1.6
298.15 K, x2 = 0.2872	932.27 ± 1	1240.7 ± 1.6
298.15 K, x2 = 0.3568	938.52 ± 1	1255.7 ± 1.7
298.15 K, x2 = 0.4307	945.23 ± 1	1271.6 ± 1.7
298.15 K, x2 = 0.4991	951.53 ± 1	1286.8 ± 1.7
298.15 K, x2 = 0.5752	958.64 ± 1	1304.2 ± 1.7
298.15 K, x2 = 0.6431	965.07 ± 1	1320 ± 1.7
298.15 K, x2 = 0.7177	972.24 ± 1	1338.5 ± 1.7
298.15 K, x2 = 0.7773	978.04 ± 1	1354 ± 1.7
298.15 K, x2 = 0.8576	985.97 ± 1	1375.9 ± 1.7
298.15 K, x2 = 0.9289	993.11 ± 1	1396.3 ± 1.7
303.15 K, x2 = 0	902.06 ± 1	1157.6 ± 1.6
303.15 K, x2 = 0.0711	908.28 ± 1	1174.2 ± 1.6
303.15 K, x2 = 0.1419	914.53 ± 1	1190.4 ± 1.6
303.15 K, x2 = 0.2152	921.06 ± 1	1206.4 ± 1.6
303.15 K, x2 = 0.2872	927.55 ± 1	1222.1 ± 1.6
303.15 K, x2 = 0.3568	933.89 ± 1	1237.4 ± 1.6
303.15 K, x2 = 0.4307	940.7 ± 1	1253.4 ± 1.6
303.15 K, x2 = 0.4991	947.1 ± 1	1268.4 ± 1.7
303.15 K, x2 = 0.5752	954.32 ± 1	1285.8 ± 1.7
303.15 K, x2 = 0.6431	960.85 ± 1	1301.7 ± 1.7
303.15 K, x2 = 0.7177	968.13 ± 1	1320.4 ± 1.7
303.15 K, x2 = 0.7773	974.02 ± 1	1336 ± 1.7
303.15 K, x2 = 0.8576	982.07 ± 1	1358.2 ± 1.7
303.15 K, x2 = 0.9289	989.33 ± 1	1379.1 ± 1.7
308.15 K, x2 = 0	896.94 ± 1	1139.4 ± 1.6
308.15 K, x2 = 0.0711	903.26 ± 1	1156.4 ± 1.6
308.15 K, x2 = 0.1419	909.61 ± 1	1172.7 ± 1.6
308.15 K, x2 = 0.2152	916.24 ± 1	1188.9 ± 1.6
308.15 K, x2 = 0.2872	922.82 ± 1	1204.6 ± 1.6
308.15 K, x2 = 0.3568	929.26 ± 1	1219.8 ± 1.6
308.15 K, x2 = 0.4307	936.17 ± 1	1236 ± 1.6
308.15 K, x2 = 0.4991	942.67 ± 1	1251.3 ± 1.6
308.15 K, x2 = 0.5752	949.99 ± 1	1268.7 ± 1.6
308.15 K, x2 = 0.6431	956.62 ± 1	1284.7 ± 1.7
308.15 K, x2 = 0.7177	964.02 ± 1	1303.5 ± 1.7
308.15 K, x2 = 0.7773	970 ± 1	1319.3 ± 1.7
308.15 K, x2 = 0.8576	978.17 ± 1	1341.8 ± 1.7
308.15 K, x2 = 0.9289	985.54 ± 1	1362.6 ± 1.7
313.15 K, x2 = 0	891.83 ± 1	1121.5 ± 1.6
313.15 K, x2 = 0.0711	898.24 ± 1	1138.9 ± 1.6
313.15 K, x2 = 0.1419	904.68 ± 1	1155.3 ± 1.6
313.15 K, x2 = 0.2152	911.41 ± 1	1171.7 ± 1.6
313.15 K, x2 = 0.2872	918.09 ± 1	1187.4 ± 1.6
313.15 K, x2 = 0.3568	924.62 ± 1	1202.7 ± 1.6
313.15 K, x2 = 0.4307	931.64 ± 1	1218.9 ± 1.6
313.15 K, x2 = 0.4991	938.23 ± 1	1234.1 ± 1.6
313.15 K, x2 = 0.5752	945.66 ± 1	1251.8 ± 1.6
313.15 K, x2 = 0.6431	952.39 ± 1	1268.2 ± 1.6
313.15 K, x2 = 0.7177	959.9 ± 1	1287.3 ± 1.7
313.15 K, x2 = 0.7773	965.97 ± 1	1303.5 ± 1.7
313.15 K, x2 = 0.8576	974.27 ± 1	1326.1 ± 1.7
313.15 K, x2 = 0.9289	981.75 ± 1	1347.2 ± 1.7
318.15 K, x2 = 0	886.71 ± 1	1104.6 ± 1.6
318.15 K, x2 = 0.0711	893.22 ± 1	1122.5 ± 1.6
318.15 K, x2 = 0.1419	899.75 ± 1	1139.1 ± 1.6
318.15 K, x2 = 0.2152	906.58 ± 1	1155.6 ± 1.6
318.15 K, x2 = 0.2872	913.35 ± 1	1171.4 ± 1.6
318.15 K, x2 = 0.3568	919.98 ± 1	1186.5 ± 1.6
318.15 K, x2 = 0.4307	927.11 ± 1	1202.7 ± 1.6
318.15 K, x2 = 0.4991	933.79 ± 1	1217.9 ± 1.6
318.15 K, x2 = 0.5752	941.33 ± 1	1235.6 ± 1.6
318.15 K, x2 = 0.6431	948.16 ± 1	1252.3 ± 1.6
318.15 K, x2 = 0.7177	955.78 ± 1	1271.8 ± 1.6
318.15 K, x2 = 0.7773	961.94 ± 1	1288.2 ± 1.7
318.15 K, x2 = 0.8576	970.37 ± 1	1311.3 ± 1.7
318.15 K, x2 = 0.9289	977.96 ± 1	1332.3 ± 1.7
